Laboratory results as given in US6037333A, “Microbe-inhibiting compositions” (Trustees of Tufts College, priority 1998, dated 2000).
Entries after “also recorded” stand apart in the source; their conditions may differ.

Experiments:
[1] = biological target: mannose binding protein (MBP) of Acanthamoeba (Acanthamoeba castellanii, UniProt Q6J288); test: Solid-phase assay of 35S-labeled Acanthamoeba binding to Man-BSA coated wells; design: species or system Acanthamoeba strain MEEI 0184 (A. castellani); conditions: for Inhibition of Acanthamoeba binding to Man-BSA: at 100 mM; for Inhibition of amoebic binding to Man-BSA / affinity of amoebic lectin: no concentration stated
Sequence of mannose binding protein (MBP) of Acanthamoeba (Q6J288 entry or part of it): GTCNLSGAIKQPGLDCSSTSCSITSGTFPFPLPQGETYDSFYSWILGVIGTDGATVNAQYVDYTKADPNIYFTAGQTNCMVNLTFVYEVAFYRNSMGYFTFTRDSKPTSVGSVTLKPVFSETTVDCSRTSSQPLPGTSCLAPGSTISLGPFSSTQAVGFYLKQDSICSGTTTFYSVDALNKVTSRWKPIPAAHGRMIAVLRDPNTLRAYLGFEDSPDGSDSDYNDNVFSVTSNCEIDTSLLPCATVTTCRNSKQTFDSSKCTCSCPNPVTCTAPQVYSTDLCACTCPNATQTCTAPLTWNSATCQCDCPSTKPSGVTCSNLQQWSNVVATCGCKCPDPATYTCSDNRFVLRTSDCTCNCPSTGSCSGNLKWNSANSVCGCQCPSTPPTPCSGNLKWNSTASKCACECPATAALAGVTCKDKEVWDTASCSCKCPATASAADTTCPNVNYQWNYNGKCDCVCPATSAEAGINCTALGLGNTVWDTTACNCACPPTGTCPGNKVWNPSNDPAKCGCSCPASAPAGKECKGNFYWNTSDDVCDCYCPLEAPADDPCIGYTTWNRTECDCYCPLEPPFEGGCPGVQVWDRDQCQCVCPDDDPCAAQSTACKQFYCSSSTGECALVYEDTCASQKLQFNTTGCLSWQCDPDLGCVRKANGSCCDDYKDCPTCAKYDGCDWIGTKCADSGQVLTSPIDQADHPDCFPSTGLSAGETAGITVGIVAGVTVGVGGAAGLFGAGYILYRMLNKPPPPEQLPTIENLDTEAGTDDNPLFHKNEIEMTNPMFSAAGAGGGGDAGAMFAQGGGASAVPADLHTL
Excerpt: The Acanthamoeba strain MEEI 0184 (A. castellani based on morphological characteristics) was derived from an infected human cornea and used throughout this study. ATCC strain 30868 should have similar properties. The parasites were axenically cultured in PYG medium. A solid-phase assay characterized the sugar binding properties of the mannose binding protein (MBP) of Acanthamoeba (Z. Yang et al., Infect. Immun. 65:439-445, 1997). Briefly, wells of microtiter plates were coated with bovine serum albumin-α-D-mannopyranosyl phenylisothiocyanate (Man-BSA, 15-25 moles of α-D-mannopyranoside/mole albumin, 0.03 μg/ml, 50μl/well in 0.1 M sodium carbonate buffer, pH 9.6, 4° C. overnight). Nonspecific binding was blocked with 1% BSA in phosphate buffered saline (PBS, 1 hour, room temperature). After adding a 50-μl aliquot of ^35 S-labeled Acanthamoeba (5×10^6 cells/ml in PBS; 1 to 2 cpm/parasite, >95% trophozoites) to each well, the plates were incubated for 2 hours at room temperature. After rinsing the cells with PBS to remove unbound Acanthamoeba, 0.1 ml of 2% sodium dodecyl sulfate (SDS) was added to each well, and the radioactivity in aliquots of solubilized material was determined in a scintillation counter.

Acanthamoeba [2] = test: Acanthamoeba-induced cytopathic effect (CPE) assay, immortalized corneal epithelial cultures; assay type: cell-based; conditions: for Inhibition of amoeba-induced CPE: no concentration stated
Procedure: Corneal epithelial cells with extended life span were also produced.
(§1) To characterize the role of carbohydrate-mediated host-parasite interactions in the Acanthamoeba-induced cytotoxicity of host cells, in vitro cytopathic assays were performed using both primary and immortalized cultures of corneal epithelium as host cells. Immortalized cells were assayed as confluent cultures in 24-well plates, and primary cells were assayed as confluent cells in 35-mm dishes or 6-well plates.
(§2) The plates were incubated at 37° C. in a CO2 incubator and periodically examined under a phase-contrast microscope for the presence of cell-free plaques in the monolayer for up to 28-30 hours. Control wells contained host cells without the parasites. At the end of the incubation period, the cultures were stained with Giemsa (Diff-Quik, Dade Diagnostic Inc., Aguada, PR). Approximate cell density in each well was estimated by scanning the stained plates in a calibrated, computer-assisted Bio-Image Scanner (Millipore, Ann Arbor, Mich.). Cytopathic effect (CPE) was expressed as percentage of the optical density by the following formula: [formula]
The CPE assays were performed in the SFB media containing one or more saccharides to be tested.
After staining with Giemsa, percent cell loss in each well was calculated based on the optical density in each well.

Acanthamoeba [3] = test: Adhesion of amoebae to corneal epithelial cell monolayer; assay type: cell-based; conditions: saccharide present in media; listed as GlcNAc
Acanthamoeba [4] = test: Acanthamoeba-induced CPE assay, primary cultures of corneal epithelium; assay type: cell-based; conditions: primary cultures as target cells
Procedure: In vitro cytopathic assays were performed using cell cultures of corneal epithelium as target cells. Primary cell cultures of rabbit corneal epithelium were prepared according to published protocols (M. M. Jumblatt, Invest. Opthalmol. Visual Sci. 24:1139-43, 1983) using rabbit eyes from Pel-Freez Biologicals (N. Panjwani et al., Invest. Opthalmol. Visual Sci. 31:689-695, 1990) (Rogers, AK). Generally, seventy-five eyes were processed at a time. Primary cultures have limited life span and can only be passaged 2 to 3 times without significant alteration in cell morphology.
as §1
as §2, with “The parasites (>95% trophozoites) were rinsed three times in a serum-free Eagle's minimum essential medium supplemented with 0.4% bovine serum albumin (SFB) and aliquots of the parasite suspension (0.2×10^5 to 1×10^6 parasites/ml SFB medium, 300 μl/well for 24-well plates and 500 μl/well for 6-well plates or 35-mm dishes) were added to wells of confluent epithelial cultures which had been rinsed and preincubated in SFB medium for 2 hours. The” for “The”
Primary cultures were less susceptible to amoeba-induced CPE, requiring 1×10^6 parasites/ml to completely destroy the monolayer within 24 hours. This parasite concentration was five times higher than that required to produce the same effect when immortalized cultures were used as target host cells.

[5] = tested on: Acanthamoeba-conditioned medium (ACM); test: CPE assay with Acanthamoeba-conditioned medium (ACM); assay type: cell-based
Procedure: To determine whether the mechanism modulating the CPE produced by intact amoeba and amoeba-conditioned medium (ACM) are distinct, CPE and assays were also performed using ACM in the presence and the absence of saccharides. To produce ACM, exponentially growing parasites (>95% trophozoites) in PYG media (Proteose Peptone-yeast extract-glucose , J. T. Bornes et al., J. Parasitol. 56:904-906, 1970) were rinsed twice with SFB medium and incubated in serum-free SFB medium at concentrations between 2×10^5 to 1×10^6 cells/ml in a CO2 incubator for 24 hours. After removing the parasites by centrifugation, each supernatant was analyzed for its ability to induce CPE. Saccharides (α-Man and GIcNAc, 50 mM) were added either to the ACM after it was produced or to serum-free medium used to produce an ACM. The ACM produced in the presence of the saccharides was also analyzed after removal of the saccharides by centrifugation through Centricon 3 microconcentrators (Amicon Inc., Beverly, Mass.).
To determine the role of the parasitic secretory factors in the cytopathogenic mechanism, chromium release and CPE assays were performed using ACM. In this study, parasites were incubated in the SFB media for 24 hours, centrifuged to remove parasites and the conditioned medium was tested for its ability to produce cytolysis and CPE. The ACM produced remarkable CPE. […] Approximately 6 to 8 hours following the incubation of the monolayer with the ACM, the cell sheet at the edges of the monolayer began to lift and roll inwards and eventually the entire monolayer lifted en bloc from the dish. These observations were similar to those seen when the monolayers were incubated with trophozoites in the presence of α-Man. Unlike the CPE induced by intact amoeba, the CPE induced by the ACM was not inhibited by either α-Man or GlcNAc when the sugars were added to the ACM after it was produced. In the next set of experiments, ACM was produced in the presence of α-Man or GIcNAc and was tested for CPE-inducing activity. […] In addition, the filtrate and retentate obtained after filtering the ACM in Centricon 3 microconcentrators were tested for CPE-inducing activity. When the ACM was produced in the absence of either sugar, substantially all of the CPE-inducing activity was found in the retentate obtained after Centricon filtration.

Acanthamoeba [6] = test: 51Cr release assay of amoeba-induced cytolysis of corneal epithelium; assay type: cell-based
Procedure: Chromium release experiments were performed to confirm the absence or occurrence of cytolysis. Visually, cell plaques or bare spots in a culture can indicate either cell loss by cytolysis, or separation of the cell from the culture surface, wherein detached cells, although initially viable, subsequently die. Cell lysis was quantified by measuring ^51 Cr release from prelabeled cells. After incubating confluent monolayer cultures of corneal epithelium in 24-well plates in cell culture medium containing Na^51 CrO4 (460 mCi/mg, 12 μCi/ml) for 18-20 hours, the cells were thoroughly rinsed and incubated with Acanthamoeba (1×10^6 parasites/ml SFB media). The four groups were (i) Acanthamoeba in media alone, (ii) Acanthamoeba in media containing α-Man, (iii) Acanthamoeba in media containing GlcNAc, and (iv) Acanthamoeba condition media. When approximately 50-70% cell loss occurred based on phase contrast microscopy, aliquots of cell-free conditioned medium from each well were analyzed. Supernatants from the four wells in each group were pooled before analysis. Percent specific release was calculated using E/T×100, where E is CPM released in test well minus CPM released in control (parasite-free) well and T is the total CPM (CPM cells+CPM supernatant in control wells). "CPM cells" was determined by incubating control wells with 0.5% Triton X-100. Conditioned media from each well was also analyzed for lactate dehydrogenase (LDH) release using an LDH assay kit (Sigma).

Row | SMILES | Toxicity to the epithelium (corneal epithelium) | Inhibition of Acanthamoeba binding to Man-BSA [1] | Inhibition of amoebic binding to Man-BSA / affinity of amoebic lectin [1] | Inhibition of amoeba-induced CPE (Acanthamoeba [2]) | Adhesion of amoebae to the cell monolayer in presence of saccharide (Acanthamoeba [3]) | Inhibition of amoeba-induced CPE (Acanthamoeba [4]) | CPE-inducing activity of ACM produced with saccharide, after removal of saccharide by Centricon filtration ([5]; saccharide 50 mM) | CPE-inducing activity of ACM produced in SFB containing the saccharide ([5]; saccharide 50 mM in medium used to produce ACM) | Inhibition of ACM-induced CPE ([5]; sugar (50 mM) added to the ACM after it was produced) | Percentage specific 51Cr release (Acanthamoeba [6]; Acanthamoeba 1×10^6 parasites/ml in media containing the saccharide, media alone about 100) [%] | Inhibition of amoeba-induced cytolysis (Acanthamoeba [6]; fifty millimolar, 51Cr release) | Inhibition of amoebic binding to Man-BSA / affinity of amoebic lectin ([1]; listed as GlcNAc) | inhibition at 50000 µM ([1]; read-out: Inhibition of binding, % at indicated conc.) [%] | inhibition at 310 µM (Acanthamoeba [2]; Acanthamoeba, in Oryctolagus cuniculus, at 0.31 mM, read-out: Inhibition of cytopathic effect (% inhib. at indicated conc.)) [%] | Inhibition of amoeba-induced CPE (Acanthamoeba [2]; listed as GlcNAc) | Attachment of cell layer to culture dish (Acanthamoeba [2]; primary and immortalized cultures, entire assay period of 28 hours) | Amoeba-induced cytolysis of corneal epithelial cells (microscopy, words) (Acanthamoeba [2]; saccharide present in media)
1 | N[C@@H]1C(O)O[C@H](CO)[C@@H](O)[C@@H]1O (stereo partly drawn) [D-mannosamine] | Toxic | did not inhibit | did not inhibit | did not inhibit | – | – | – | – | – | – | – | – | – | – | – | – | –
2 | CC(=O)N[C@H]1C(O)O[C@H](CO)[C@@H](O)[C@@H]1O (stereo partly drawn) [N-acetyl-D-glucosamine] | – | – | – | – | poor inhibitor; also recorded: adhered tightly | inhibited | did not have CPE-inducing activity | did not induce CPE | not inhibited | ~80 | 10-20% | weak inhibitor | 50 | 60 | inhibits CPE; also recorded: potent inhibitor; also recorded: nearly identical | remained firmly adhered | little evidence of cytolysis
3 | N[C@H]1C(O)O[C@H](CO)[C@@H](O)[C@@H]1O (stereo partly drawn) [D-glucosamine] | Toxic | did not inhibit | – | – | – | – | – | – | – | – | – | – | – | – | – | – | –
